Assay [1] deals with T1, Plasmodium falciparum dUTPase (Plasmodium falciparum, UniProt Q8II92).
T1 construct: made in house; host or cells: E. coli BL21 (DE3)
T1 sequence (Q8II92 1-173): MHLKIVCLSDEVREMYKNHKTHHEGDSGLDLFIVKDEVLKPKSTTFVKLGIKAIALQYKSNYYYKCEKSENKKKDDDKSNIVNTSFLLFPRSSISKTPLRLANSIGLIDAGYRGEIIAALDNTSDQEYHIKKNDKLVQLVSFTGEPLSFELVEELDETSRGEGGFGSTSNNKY
Description: Inhibition of Plasmodium falciparum dUTPase (malaria enzyme assay). The format is biochemical. As to the method:
Inhibition of Plasmodium falciparum dUTPase
2′-dUTP, was purchased from Pharmacia. MgCl2, BSA, and the pH indicator cresol red were from Sigma. The buffer N,N-bis(2-hydroxyethyl)glycine (BICINE) was obtained from USB (United States Biochemical), Ohio. All the concentrations of nucleotides were calculated spectrophotometrically (HP-8453, Hewlett Packard) at 280 nm, using the extinction coefficient (ε280 nm=1.75 ml mg^−1cm^−1). Other chemicals used in these experiments were of the highest quality available.
Conserved motifs of the human dUTPase enzyme were used as query to identify the PFdut gene in the www.tigr.org database of the Plasmodium falciparum 3D7 strain. The entire coding sequence was amplified by the PCR using as template cDNA and as primers the oligonucleotides ATG-PFdut ([…]) and TGA-PFdut ([…]) which were designed so that NdeI and BamHI restriction sites were introduced at the 5′ and 3′ ends for convenient cloning in the expression vector pET11 (Stratagene). The amplified product was cloned into pGEMT (Promega) and propagated in E. coli XL1B cells. In order to confirm the correct sequence after amplification, sequencing was performed using an Applied Biosystems Automated Sequencer, at the Analytical Services of the Instituto de Parasitología y Biomedicina “López Neyra”. These Services also supplied the oligonucleotides designed for the sequencing
Recombinant P. falciparum dUTPase was purified from E. coli BL21 (DE3) cells transformed with pET-PFdut. Pellets from a liter of culture were resuspended in a solution consisting of buffer A (20 mM MES pH 5.5, 50 mM NaCl, 1 mM DTT) plus the protease inhibitors 1 mM PMSF, 20 μg/ml leupeptin and 1 mM benzamidine. Purification was carried out in a cold room (4° C.). The soluble crude extract was obtained by sonication in a Vibra-cell (Sonics and Materials Inc. Danbury, Conn., USA) and centrifugation at 14000×g. The extract was loaded onto a phosphocellulose column (Whatman) pre-equilibrated with buffer A at a flow rate of 1 ml/min. After washing the column with 100 ml of buffer A, elution was performed using a linear NaCl gradient of 50 to 1000 mM. Peak fractions with a low concentration of contaminating protein, as judged by 15% SDS-PAGE gels, were pooled and then loaded and chromatographed on a Superdex 200 column at a flow rate of 0.5 ml/min. The column was equilibrated with buffer B (50 mM Bicine, 1 mM DTT, 10 mM MgCl2). Peak fractions were pooled and concentrated to about 5 mg/ml by ultrafiltration in a Centripep tube (Amicon) and stored at −80° C.
Nucleotide hydrolysis was monitored by mixing enzyme and substrate with a rapid kinetic accessory (Hi-Tech Scientific) attached to a spectrophotometer (Cary 50) and connected to a computer for data acquisition and storage. Protons, released through the hydrolysis of nucleotides, were neutralised by a pH indicator in a weak buffered medium with similar pKa and monitored spectrophotometrically at the absorbance peak of the basic form of the indicator. Absorbance changes were kept within 0.1 units. The indicator/buffer pair used was cresol red/BICINE ([…], pH 8, 573 nm). The measurements were performed at 25° C., and the solutions were previously degassed. […] Indicator absorbance changes corresponding to complete hydrolysis of nucleotides were recorded in the computer, and the kinetic parameters Vmax and Kmapp (or slope) were calculated by fitting the data to the integrated Michaelis-Menten equation (Segel, 1975). […]

For assay [2], the target named is T2, Human recombinant dUTPase (Homo sapiens, UniProt P33316).
T2 construct: made in house; host or cells: E. coli BL21 (DE3)
T2 sequence (P33316 112-252 limits assumed): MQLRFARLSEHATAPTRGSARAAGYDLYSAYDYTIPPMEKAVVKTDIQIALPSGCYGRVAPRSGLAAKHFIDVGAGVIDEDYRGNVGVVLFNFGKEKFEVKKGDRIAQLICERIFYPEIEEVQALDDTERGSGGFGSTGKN
Description: Human dUTPase assay. The assay is classed as biochemical. The conditions noted are these: human enzyme versus Plasmodium falciparum enzyme. As to the method:
Human recombinant dUTPase was purified from E. coli BL21 (DE3) cells transformed with pETHudut (Dr. P. O. Nyman, Lund University). Purification was accomplished as described for the dUTPase above except that the last step in Superdex 200 was omitted. Likewise, conditions for enzyme assays were the same as described above except that the enzyme concentration was 50 nM.

In the next assay the test system is P. falciparum. The experiment in a line: Malaria whole cell assay (3H-hypoxanthine incorporation). The format is cell-based. The conditions noted are these: Plasmodium falciparum cell culture; read-out: ED50 (the source's name). As to the method:
Two strains of P. falciparum are used in this study: The drug sensitive NF54 (an airport strain of unknown origin) and K1 (Thailand, chloroquine and pyrimethamine resistant). The strains are maintained in RPMI-1640 medium with 0.36 mM hypoxanthine supplemented with 25 mM HEPES, 25 mM NaHC03, neomycin (100 U/ml) and Albumax^R (lipid-rich bovine serum albumin) (GIBCO, Grand Island, N.Y.) (5 g/l), together with 5% washed human A+ erythrocytes. All cultures and assays are conducted at 37° C. under an atmosphere of 4% C02, 3% 02 and 93% N2. Cultures are kept in incubation chambers filled with the gas mixture. Subcultures are diluted to a parasitaemia of 0.1-0.5% and the medium changed daily.
Antimalarial activity is assessed using an adaptation of the procedures described by Desjardins et al. (Antimicrob. Agents Chemother. 16(6):710-8, 1979), and Matile and Pink (In: Lefkovits, I. and Pernis, B. (Eds.). Immunological Methods. Academic Press, San Diego, pp. 221-234, 1990).
After use the stocks are kept at −20° C. The compound is further diluted to the appropriate concentration using complete medium without hypoxanthine.
Assays are performed in sterile 96-well microtiter plates, each well containing 200 μl of parasite culture (0.15% parasitemia, 2.5% hematocrit) with or without serial drug solutions. Seven 2-fold dilutions are used covering a range from 5 μg/ml 0.078 μg/ml.
After 48 hours of incubation at 37° C., 0.5 μCi ^3H-hypoxanthine is added to each well. Cultures are incubated for a further 24 h before they are harvested onto glass-fiber filters and washed with distilled water. The radioactivity is counted using a Betaplate™ liquid scintillation counter (Wallac, Zurich, Switzerland). […] From the sigmoidal inhibition curves IC50 values are calculated.
K1 strain is used. The compounds are tested at 7 concentrations (5000 to 78 ng/ml). Artemisinin and chloroquine are included as reference drugs.
A new range of concentrations is chosen depending on the IC50 determined (e.g. 100 to 1.56 ng/ml) and the assay is carried out 2× independently.
The standard drugs are chloroquine and artemisinin which are run in the same assay.

A further assay has as its target Leishmania dUTPase (Leishmania major, UniProt O15826). The settings on record: Hidalgo-Zarco and González-Pacanowska 2001; cited from earlier work.
Where [3] appears, read: Plasmodium falciparum enzyme, read-out: Ki.

The values that follow come from patent publication US8017620B2, “Dutpase inhibitors” (Medivir AB, priority 2004, dated 2011).

The structures appear in SMILES notation. Read-outs that look alike come from different tables or passages of the source.

Sequence of Leishmania dUTPase (O15826 entry or part of it): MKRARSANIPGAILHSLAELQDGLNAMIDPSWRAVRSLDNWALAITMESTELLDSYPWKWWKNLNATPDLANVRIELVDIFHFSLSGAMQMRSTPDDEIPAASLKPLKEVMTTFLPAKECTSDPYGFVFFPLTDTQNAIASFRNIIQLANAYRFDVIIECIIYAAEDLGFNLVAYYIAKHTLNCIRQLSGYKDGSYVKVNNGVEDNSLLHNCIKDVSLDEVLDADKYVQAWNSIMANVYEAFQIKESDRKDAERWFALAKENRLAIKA

With `O=c1ccn(CCCCNC(c2ccccc2)(c2ccccc2)c2ccccc2)c(=O)[nH]1`, in assay [1] (setting [3]), the Ki turned out to be 900 nM. Further, the “SI (selectivity over the human enzyme)” value in assay [2] worked out at 1111. For the same compound, the EC50 in the assay on P. falciparum was 3800 nM.
Take `O=c1ccn(CCCCCNC(c2ccccc2)(c2ccccc2)c2ccccc2)c(=O)[nH]1`: in assay [1] (setting [3]), the Ki was determined as 4290 nM. Moreover, the “SI (selectivity over the human enzyme)” value in assay [2] is recorded as above 233. The EC50 in the assay on P. falciparum came to 2200 nM.
Regarding `O=c1ccn(COCCOC(c2ccccc2)(c2ccccc2)c2ccccc2)c(=O)[nH]1`, the Ki in assay [1] is 670 nM. In assay [2], the “SI (selectivity over the human enzyme)” value is reported as 25.3. Moreover, in the assay on P. falciparum, the EC50 was 900 nM.
Taken in the same sequence, the figures for `O=c1ccn(CCCCOC(c2ccccc2)(c2ccccc2)c2ccccc2)c(=O)[nH]1` were 1620 nM, 617 and 4900 nM.
In assay [1], `O=c1ccn(CCCCO[Si](c2ccccc2)(c2ccccc2)c2ccccc2)c(=O)[nH]1` gave an inhibition constant (Ki) of 1690 nM. In addition, the “SI (selectivity over the human enzyme)” value in assay [2] was determined as 226. The EC50 with P. falciparum is 430 nM.
With `COc1ccc(C(OC[C@H]2O[C@@H](n3ccc(=O)[nH]c3=O)C[C@@H]2O)(c2ccccc2)c2ccc(OC)cc2)cc1` [5′-O-(4-4′-dimethoxytrityl)-2′-deoxyuridine], the “inhibition of Leishmania dUTPase” value at Leishmania dUTPase was “no inhibition”.
For the compound `O=c1ccn([C@H]2C[C@H](O)[C@@H](COP(=O)(O)NP(=O)(O)OP(=O)(O)O)O2)c(=O)[nH]1` [α-β-imido-dUTP], the “inhibition of Leishmania dUTPase” value at Leishmania dUTPase is recorded as “Competitive inhibition”.

As usually defined, the Ki is a measure of affinity in units of concentration, obtained from inhibition or displacement.
